Test [1] concerns consortium of bacteria: mixture of Pseudomonas aeruginosa, Klebsiella pneumoniae, Staphylococcus aureus, and Bacillus subtilis. In words: Growth inhibition assay (microtiter plate-based synergy assay). It counts as cell-based. The following applies: for I90 (concentration required to inhibit at least 90% of bacterial growth when used alone) / I90 (concentration required for at least 90% inhibition of growth): active alone, 37° C., 24 hr; for I90 (concentration required for at least 90% inhibition of growth): Example 2; for % Inhibition of Growth: Example 3. An excerpt:
(§1) The results provided in the Examples are generated using a growth inhibition assay. Details of each assay are provided below.
(§2) Growth Inhibition Assay. The growth inhibition assay used in the Examples measures inhibition of growth (or lack thereof) of a microbial consortium Inhibition of growth can be the result of killing of the cells (so no growth occurs), killing of a significant portion of the populations of cells so that regrowth requires a prolonged time, or inhibition of growth without killing (stasis). Regardless of the mechanism of action, the impact of a biocide (or combination of biocides) can be measured over time on the basis of an increase in the size of the community.
(§3) The assay measures the efficacy of one or more biocides at preventing growth of a consortium of bacteria in a dilute mineral salts medium. The medium contains (in mg/l) the following components: FeCl3.6H2O (1); CaCl2.2H2O (10); MgSO4.7H2O (22.5); (NH4)2SO4 (40); KH2PO4 (10); K2HPO4 (25.5); Yeast Extract (10); and glucose (100). After all components are added to deionized water, the pH of the medium is adjusted to 7.5. Following filter sterilization, aliquots are dispensed in 100 μl quantities to sterile microtiter plate wells. Dilutions of 2,2-dibromomalonamide (“DBMAL”) and/or “Biocide B” are then added to the microtiter plate. After preparing the combinations of actives as illustrated below, each well is inoculated with 100 μl of a cell suspension containing ca. 1×10^6 cells per milliliter of a mixture of Pseudomonas aeruginosa, Klebsiella pneumoniae, Staphylococcus aureus, and Bacillus subtilis. The final total volume of medium in each well is […]. […] The resulting matrix allows testing of eight concentrations of each active and 64 combinations of actives in the ratios (of actives).
(§4) Controls (not shown) contain the medium with no biocide added.
(§5) Immediately after the microtiter plates are prepared, the optical density (OD) readings for each well is measured at 580 nm and the plates are then incubated at 37° C. for 24 hr. After the incubation period, the plates are gently agitated before OD580 values are collected. The OD580 values at T0 are subtracted from T24 values to determine the total amount of growth (or lack thereof) that occurs. These values are used to calculate the percent inhibition of growth caused by the presence of each biocide and each of the 64 combinations. A 90% inhibition of growth (I90) value is used as a threshold for calculating synergy index (SI) values with the following equation: Synergy Index=MDBMAL/CDBMAL+MB/CB
(§6) where • CDBMAL: Concentration of DBMAL required to inhibit at least 90% of bacterial growth when used alone • CB: Concentration of biocide (B) required to inhibit at least 90% of bacterial growth when used alone. • MDBMAL: Concentration of DBMAL required to inhibit at least 90% of bacterial growth when used in combination with biocide (B). • MB: Concentration of biocide (B) required to inhibit at least 90% of bacterial growth when used in combination with DBMAL The SI values are interpreted as follows: • SI<1: Synergistic combination • SI=1: Additive combination • SI>1: Antagonistic combination
(§7) In the Examples below, the amounts of biocides in the solution are measured in mg per liter of solution (mg/l). Since solution densities are approximately 1.00, the mg/1 measurement corresponds to weight and can be expressed as parts per million (ppm). Both units may therefore be used interchangeably in the Examples.

Experiment in test [2]: as above
To be noted: Example 3. It counts as cell-based.
Description: as §1, §2, §3, §4, §5, §6, §7

By inhibition is commonly meant the percentage by which the read-out fell short of the control. As to `NC(=O)C(Br)(Br)C(N)=O` [DBMAL, 2,2-dibromomalonamide], the “I90 (concentration required to inhibit at least 90% of bacterial growth when used alone)” value in test [1] (Example 1 Experiment 1) was determined as 12.5 mg/L. Also, the “I90 (concentration required for at least 90% inhibition of growth)” value in test [1] was found to be 12.5 mg/L. In test [2] (DBMAL Alone 0.20 mg/l), the inhibition at 0.2 µg/mL stood at 2%. Moreover, the inhibition at 0.39 µg/mL in test [2] (DBMAL Alone 0.39 mg/l) was found to be 0%. In test [2] (DBMAL Alone 0.78 mg/l), the inhibition at 0.78 µg/mL is 4%. Moreover, the inhibition at 1.56 µg/mL in test [2] (DBMAL Alone 1.56 mg/l) was found to be 9%. For the same compound, in test [2] (DBMAL Alone 3.13 mg/l), the inhibition at 3.13 µg/mL came to 21%. In test [2] (DBMAL Alone 6.25 mg/l), the inhibition at 6.25 µg/mL is 29%. Moreover, the inhibition at 12.5 µg/mL in test [2] (DBMAL Alone 12.50 mg/l) amounted to 100%. The inhibition at 25 µg/mL in test [2] (DBMAL Alone 25.00 mg/l) was found to be 100%.
As for `[Zn]` [Zn, zinc, reference compound], the “% Inhibition of Growth” value was determined as 19% in test [1] (Zn Alone 19.5 mg/l); 12% in test [1] (Zn Alone 39.1 mg/l); 18% in test [1] (Zn Alone 78.1 mg/l); 23% in test [1] (Zn Alone 156.3 mg/l); 33% in test [1] (Zn Alone 312.5 mg/l); 74% in test [1] (Zn Alone 625.0 mg/l). The “% Inhibition of Growth” value is 91% in test [1] (Zn Alone 1250.0 mg/l) and 92% in test [1] (Zn Alone 2500.0 mg/l).
`[Cu]` [Cu, copper]: in test [1], the “I90 (concentration required for at least 90% inhibition of growth)” value turned out to be 0.78 mg/L.
With `[Ag]` [Ag, silver], the “I90 (concentration required to inhibit at least 90% of bacterial growth when used alone)” value worked out at 0.063 mg/L in test [1] (Example 1 Experiment 1) and 0.125 ppm in test [1] (Example 1 subsequent experiment (Experiment 2)).

For the origin of these results see patent US9060511B2, “Compositions of dibromomalanomide and their use as biocides” (Rohm and Haas Company, priority 2010, dated 2015).
